Laboratory results: patent US7906486B2, “Method of treating or preventing tissue deterioration, injury or damage due to disease of mucosa” (SciClone Pharmaceuticals, Inc., priority 2007, dated 2011)

Tested on: oral mucositis induced by cis-platin 5 mg/kg and radiation 35 Gy (left cheek pouch)
Assay: Oral mucositis induced by a combination of cisplatin and acute radiation in hamsters, mucositis scoring (Example 4, SCI-04)
Format: in vivo, Syrian Golden Hamsters
Parameters: key: 0: Pouch completely healthy. No erythema or vasodilation.; 1: Light to severe erythema and vasodilation. No erosion of mucosa.; 2: Severe erythema and vasodilation. Erosion of superficial aspects of mucosa leaving denuded areas, but no frank ulceration. Decreased stippling of mucosa.; 3: Formation of off-white ulcers in one or more places. Ulcers may have a yellow/gray due to pseudomembrane. Cumulative size of ulcers should equal about ¼ of the pouch. Severe erythema and vasodilation.; 4: Cumulative seize of ulcers should equal about ½ of the pouch. Loss of pliability. Severe erythema and vasodilation.; 5: Virtually all of pouch is ulcerated. Loss of pliability (pouch can only partially be extracted from mouth)
Details: Group 2 (SCV-07 10 μg/kg, day -1 to day 20), individual animal scores, two scores per animal
Experimental: Forty Golden Syrian hamsters were prospectively randomized into four equally sized groups. Mucositis was induced on the left cheek pouch mucosa of golden Syrian hamsters by a single dose of cis-platin at 5 mg/kg given on day −1, and a single dose of radiation administered on day 0 at a dose of 35Gy. Beginning on day −1 and continuing once daily until day 20, SCV-07 was given by sub-cutaneous injection at doses of 10 μg/kg, 100 μg/kg or 1 mg/kg in a volume of 100 μL. Animals' activity and weight were evaluated daily. Beginning on day 6 and continuing on alternate days for the duration of the study, oral mucositis was evaluated using a standard scoring six point scale. The number of days of ulcerative mucositis was evaluated using a Chi-squared test of scores of ≧3 throughout the study, and the individual daily group scores were assessed with a Rank Sum Test.
The chemo-radiation model of oral mucositis in hamsters, developed by the Principal Investigator, has proven to be an accurate, efficient and cost-effective technique to provide a preliminary evaluation of anti-mucositis compounds. In this model, hamsters received a single dose of cis-platin at 5 mg/kg on day −1, followed by a single dose of radiation of 35 Gy to the left cheek pouch on day 0, rather than the single dose of 40 Gy on day 0 that is used in acute radiation studies. The course of mucositis in this model is very similar to the acute radiation model and results in peak mucositis scores approximately 16-18 days following radiation.
Hamsters received a single dose of cis-platin at 5 mg/kg on day −1 by intra-peritoneal injection, followed by a single dose of radiation of 35 Gy to the left cheek pouch on day 0. This was accomplished by anesthetizing the animals and everting the left buccal pouch, while protecting the rest of the animal's bodies with a lead shield. Test materials were given by sub-cutaneous injection once daily as detailed in Table 13. Mucositis was evaluated clinically starting on day 6, and continuing on alternate days until day 28. Test articles were given as from day −1 to day 20.
The grade of mucositis was scored, beginning day 6, and for every second day thereafter, through and including day 28. The effect on mucositis of each drug treatment compared to placebo was assessed according to the following parameters:
On each evaluation day, the number of animals with a blinded mucositis score of ≧3 in each drug treatment group was compared to the control group. Differences were compared on a cumulative basis and statistical significance was determined by chi-square analysis. Efficacy, in this analysis, is defined by a significant reduction in the number of days that a group of animals had ulcerations (scores 3) when compared to the control group.
For each evaluation day the scores of the control group were compared to those of the treated groups using non-parametric rank sum analysis. Treatment success was considered as a statistically significant lowering of scores in the treated group on 2 or more days from day 6 to day 28.
Forty (40) male Syrian Golden Hamsters were given an intraperitoneal injection of 5 mg/kg Cisplatin on day −1. On day 0 all animals were given an acute radiation dose of 35 Gy directed to their left buccal cheek pouch. This was accomplished by anesthetizing the animals and everting the left buccal pouch, while protecting the rest of the animals with a lead shield. Test materials were given by subcutaneous injection once daily as detailed in Table 13. Mucositis was evaluated clinically starting on Day 6, and continued on alternate days until day 28.
In this study, mucositis was induced with a combination of Cis-platin and radiation. Cis-platin was given as a single injection (IP) of 5 mg/kg on day −1. Radiation was given as a single focal dose of 35 Gy on day 0. Radiation was generated with a Philips 160 kVp (kilovolt potential) (18.75-ma) X-ray source at a focal distance of 30 cm, with a 3.0 mm hardened Al filtration system. […]

N[C@H](CCC(=O)N[C@@H](Cc1c[nH]c2ccccc12)C(=O)O)C(=O)O [SCV-07, γ-D-glutamyl-L-tryptophan]
2: Mucositis score, day 10 (day 10) | Mucositis score, day 12 (day 12) | Mucositis score, day 14 (day 14) | Mucositis score, day 16 (day 16) | Mucositis score, day 18 (day 18) | Mucositis score, day 20 (day 20) | Mucositis score, day 22 (day 22) | Mucositis score, day 24 (day 24) | Mucositis score, day 26 (day 26) | Mucositis score, day 28 (day 28)
